# Measurements: ChEMBL document CHEMBL1201862, “PubChem BioAssay data set” (2004)
# Calls of active or inactive are those of the source.
# Columns and labels:
# Galanin receptor type 3 = Galanin receptor type 3 (Homo sapiens, UniProt O60755); experiment: Fluorescence-based cell-based primary high throughput dose response assay to identify antagonists of the Galanin Receptor 3 (GalR3).; format: functional
# cells [1] = format: functional, cell-based; conditions: HEK-CNG
# [2] = target: T1, Endoribonuclease toxin MazF (Escherichia coli K-12, UniProt P0AE70); experiment: activation of MazEF endoribonuclease cleavage – biochemical, fluorescence, single-stranded RNA substrate, uHTS hits, dose response (AID 588481); format: functional
# T1 sequence (P0AE70 whole entry): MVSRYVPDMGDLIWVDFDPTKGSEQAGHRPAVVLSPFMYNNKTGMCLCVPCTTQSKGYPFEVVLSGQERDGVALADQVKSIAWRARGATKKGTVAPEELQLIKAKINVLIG
# [3] = target: T2, Sentrin-specific protease 1 (Homo sapiens, UniProt Q9P0U3); experiment: Dose response confirmation of small molecule inhibitors of the catalytic domain of the SUMO protease, SENP1 in a FRET assay.; format: functional; conditions: read-out: IC50_Mean
# T2 sequence (Q9P0U3 whole entry): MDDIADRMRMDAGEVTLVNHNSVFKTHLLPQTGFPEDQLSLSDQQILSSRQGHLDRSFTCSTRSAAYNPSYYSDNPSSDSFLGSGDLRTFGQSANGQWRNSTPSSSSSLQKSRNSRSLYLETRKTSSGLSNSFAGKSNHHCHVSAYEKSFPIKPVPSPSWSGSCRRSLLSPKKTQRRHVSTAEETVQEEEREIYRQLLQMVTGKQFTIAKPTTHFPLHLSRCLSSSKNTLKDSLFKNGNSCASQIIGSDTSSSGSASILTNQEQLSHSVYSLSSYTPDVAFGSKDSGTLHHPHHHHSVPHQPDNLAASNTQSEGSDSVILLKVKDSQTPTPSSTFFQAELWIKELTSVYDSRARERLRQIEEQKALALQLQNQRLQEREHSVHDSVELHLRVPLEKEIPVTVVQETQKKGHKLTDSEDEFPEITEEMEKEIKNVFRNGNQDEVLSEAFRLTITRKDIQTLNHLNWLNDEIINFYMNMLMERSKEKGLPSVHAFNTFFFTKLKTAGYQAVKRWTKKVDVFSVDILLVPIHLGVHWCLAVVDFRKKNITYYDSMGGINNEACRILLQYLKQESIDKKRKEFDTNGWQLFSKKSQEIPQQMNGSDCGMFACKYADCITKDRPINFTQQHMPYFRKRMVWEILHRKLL
# [4] = target: T1, Endoribonuclease toxin MazF; experiment: substrate-only fluorescence increase artefacts – biochemical, single-stranded RNase substrate, counter-screen for MazEF activator project, dose response (AID 588502); format: functional
# [5] = target: T3, Histone-lysine N-methyltransferase NSD2 (Homo sapiens, UniProt O96028); format: biochemical
# T3 sequence (O96028 whole entry): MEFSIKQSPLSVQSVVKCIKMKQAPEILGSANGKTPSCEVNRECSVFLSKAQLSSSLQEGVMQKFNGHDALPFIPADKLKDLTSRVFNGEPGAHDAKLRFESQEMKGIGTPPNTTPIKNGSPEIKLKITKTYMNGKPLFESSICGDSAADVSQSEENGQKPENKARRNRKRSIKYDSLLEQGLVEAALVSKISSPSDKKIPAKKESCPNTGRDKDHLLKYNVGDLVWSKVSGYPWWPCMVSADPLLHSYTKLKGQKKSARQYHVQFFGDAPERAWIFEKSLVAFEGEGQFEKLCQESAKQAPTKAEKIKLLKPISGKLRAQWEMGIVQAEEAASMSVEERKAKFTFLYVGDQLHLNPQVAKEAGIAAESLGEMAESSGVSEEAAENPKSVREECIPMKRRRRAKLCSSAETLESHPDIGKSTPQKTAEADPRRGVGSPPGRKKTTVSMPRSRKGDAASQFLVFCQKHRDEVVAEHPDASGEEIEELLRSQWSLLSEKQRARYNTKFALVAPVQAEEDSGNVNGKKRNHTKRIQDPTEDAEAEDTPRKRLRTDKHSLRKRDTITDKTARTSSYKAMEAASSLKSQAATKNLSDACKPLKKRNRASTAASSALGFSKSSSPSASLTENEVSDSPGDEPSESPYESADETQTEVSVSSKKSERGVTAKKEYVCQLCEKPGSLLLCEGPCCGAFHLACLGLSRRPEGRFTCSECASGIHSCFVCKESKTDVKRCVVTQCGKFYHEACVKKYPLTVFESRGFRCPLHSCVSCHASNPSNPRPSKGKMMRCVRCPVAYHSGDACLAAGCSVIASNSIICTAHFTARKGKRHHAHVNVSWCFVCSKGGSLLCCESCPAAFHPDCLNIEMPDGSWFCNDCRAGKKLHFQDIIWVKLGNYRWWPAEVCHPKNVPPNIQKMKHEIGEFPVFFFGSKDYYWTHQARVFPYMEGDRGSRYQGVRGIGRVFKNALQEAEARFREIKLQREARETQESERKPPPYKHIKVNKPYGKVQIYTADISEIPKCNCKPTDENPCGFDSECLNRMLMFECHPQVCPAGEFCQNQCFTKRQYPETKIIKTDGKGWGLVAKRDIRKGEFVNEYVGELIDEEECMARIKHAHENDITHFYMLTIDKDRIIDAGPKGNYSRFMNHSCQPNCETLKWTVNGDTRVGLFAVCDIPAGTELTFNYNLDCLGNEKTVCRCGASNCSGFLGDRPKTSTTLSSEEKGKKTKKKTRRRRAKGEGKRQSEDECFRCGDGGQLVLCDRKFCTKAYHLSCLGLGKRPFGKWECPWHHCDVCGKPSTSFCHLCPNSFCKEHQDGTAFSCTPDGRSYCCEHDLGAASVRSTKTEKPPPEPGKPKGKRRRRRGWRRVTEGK
# [6] = target: T4, Rac GTPase-activating protein 1 (Homo sapiens, UniProt Q9H0H5); experiment: blockers of MgcRacGAP-driven Rac1 GTP hydrolysis – biochemical, ADP Hunter fluorescence, primary and confirmatory, confirmation (AID 624330); format: functional
# T4 sequence (Q9H0H5 whole entry): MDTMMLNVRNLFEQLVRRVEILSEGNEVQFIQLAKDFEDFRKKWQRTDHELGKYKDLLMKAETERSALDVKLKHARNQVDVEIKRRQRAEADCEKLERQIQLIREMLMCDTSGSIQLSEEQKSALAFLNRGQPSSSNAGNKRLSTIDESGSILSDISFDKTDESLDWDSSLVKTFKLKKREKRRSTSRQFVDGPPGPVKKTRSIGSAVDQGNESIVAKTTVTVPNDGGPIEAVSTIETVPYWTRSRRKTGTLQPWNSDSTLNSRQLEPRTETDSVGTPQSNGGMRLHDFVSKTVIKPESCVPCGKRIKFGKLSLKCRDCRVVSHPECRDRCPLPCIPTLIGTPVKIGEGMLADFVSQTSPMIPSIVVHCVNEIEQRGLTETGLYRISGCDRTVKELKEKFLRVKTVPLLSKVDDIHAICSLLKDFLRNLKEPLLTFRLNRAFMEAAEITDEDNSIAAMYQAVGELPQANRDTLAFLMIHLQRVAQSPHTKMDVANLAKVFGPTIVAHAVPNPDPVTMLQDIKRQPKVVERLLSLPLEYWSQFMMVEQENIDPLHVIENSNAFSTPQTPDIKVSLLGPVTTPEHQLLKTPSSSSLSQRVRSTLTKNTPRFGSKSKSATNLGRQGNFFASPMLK
# [7] = bead-based luminescence quenchers, dual-tagged ARNT – biochemical, AlphaScreen, cherry-pick, artefact control for ARNT-TACC3 interaction inhibitor project, dose response (AID 651705); format: functional;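 also: AlphaScreen bead proximity signal that flags compounds interfering with the detection technology; potency reflects signal decrease which marks the compound as an assay artifact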
# [8] = viability loss in HeLa cells – cytotoxicity control for MgcRacGAP inhibitor project, dose response (AID 624300); format: functional
# [9] = target: T5, Tyrosyl-DNA phosphodiesterase 2 (Homo sapiens, UniProt O95551); experiment: potency against TDP2 phosphodiesterase activity – biochemical, epi absorbance, IC50, dose response (AID 743297)
# T5 sequence (O95551 whole entry): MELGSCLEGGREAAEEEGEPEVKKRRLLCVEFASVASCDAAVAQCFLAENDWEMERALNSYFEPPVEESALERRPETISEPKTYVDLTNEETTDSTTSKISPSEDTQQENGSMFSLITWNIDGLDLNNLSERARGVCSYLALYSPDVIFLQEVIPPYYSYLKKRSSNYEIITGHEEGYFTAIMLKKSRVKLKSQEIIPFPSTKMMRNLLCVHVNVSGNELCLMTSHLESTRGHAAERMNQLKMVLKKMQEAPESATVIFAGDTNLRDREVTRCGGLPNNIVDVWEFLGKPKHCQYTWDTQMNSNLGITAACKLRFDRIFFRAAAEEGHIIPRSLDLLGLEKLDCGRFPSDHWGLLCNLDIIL
# [10] = target: Adenosylmethionine-8-amino-7-oxononanoate aminotransferase (Mycobacterium tuberculosis, UniProt P9WQ81); experiment: Mycobacterium tuberculosis BioA enzyme inhibitor Measured in Biochemical System Using Plate Reader - 2163-02_Inhibitor_Dose_CherryPick_Activity.; format: functional, Mycobacterium tuberculosis UT205
# Sequence of Adenosylmethionine-8-amino-7-oxononanoate aminotransferase (P9WQ81 whole entry): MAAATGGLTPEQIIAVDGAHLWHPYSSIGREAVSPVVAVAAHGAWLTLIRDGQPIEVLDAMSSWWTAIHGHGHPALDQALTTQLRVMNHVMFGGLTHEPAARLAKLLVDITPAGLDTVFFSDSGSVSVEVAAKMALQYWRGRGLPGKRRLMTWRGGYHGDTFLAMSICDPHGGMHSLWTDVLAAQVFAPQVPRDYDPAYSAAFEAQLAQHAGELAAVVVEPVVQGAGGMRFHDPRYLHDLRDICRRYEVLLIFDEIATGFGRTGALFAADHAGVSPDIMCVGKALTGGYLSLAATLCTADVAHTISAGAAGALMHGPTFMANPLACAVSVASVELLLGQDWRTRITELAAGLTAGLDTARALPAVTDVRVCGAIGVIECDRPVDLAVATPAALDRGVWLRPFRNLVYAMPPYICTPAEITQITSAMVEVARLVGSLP
# cells [11] = format: functional, cell-based
# cells [12] = format: functional, cell-based; remark: listed apart in the source
# cells [13] = format: functional, cell-based; remark: listed apart in the source
# cells [14] = format: functional, cell-based; remark: listed apart in the source
# [15] = target: Tyrosine-protein phosphatase non-receptor type 5 (Homo sapiens, UniProt P54829); experiment: PTPN5 enzyme inhibition – biochemical, fluorescence intensity, uHTS hits, confirmation (AID 602372); format: functional; conditions: read-out: IC50_Mean
# Sequence of Tyrosine-protein phosphatase non-receptor type 5 (P54829 whole entry): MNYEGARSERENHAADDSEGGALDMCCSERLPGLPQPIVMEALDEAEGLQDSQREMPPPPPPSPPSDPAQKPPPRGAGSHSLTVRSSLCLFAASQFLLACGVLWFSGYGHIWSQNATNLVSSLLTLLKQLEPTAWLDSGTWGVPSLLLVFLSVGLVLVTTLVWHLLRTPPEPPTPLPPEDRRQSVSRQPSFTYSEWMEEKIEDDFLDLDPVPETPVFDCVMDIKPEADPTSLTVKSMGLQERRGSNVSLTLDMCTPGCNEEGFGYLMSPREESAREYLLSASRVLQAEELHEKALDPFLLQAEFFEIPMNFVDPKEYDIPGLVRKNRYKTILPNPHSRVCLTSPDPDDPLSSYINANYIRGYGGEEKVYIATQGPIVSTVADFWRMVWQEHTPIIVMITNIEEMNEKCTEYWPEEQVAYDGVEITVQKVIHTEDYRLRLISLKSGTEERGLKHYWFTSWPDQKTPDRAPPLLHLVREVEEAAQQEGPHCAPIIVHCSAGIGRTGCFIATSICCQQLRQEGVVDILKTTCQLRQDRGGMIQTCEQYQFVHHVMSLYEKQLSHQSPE
# [16] = target: Tyrosine-protein phosphatase non-receptor type 11 (Homo sapiens, UniProt Q06124); experiment: PTPN11 enzyme inhibitors – biochemical, selectivity assay for STEP inhibitor project, dose response (AID 602367); format: functional; conditions: read-out: IC50_Mean
# Sequence of Tyrosine-protein phosphatase non-receptor type 11 (Q06124 whole entry): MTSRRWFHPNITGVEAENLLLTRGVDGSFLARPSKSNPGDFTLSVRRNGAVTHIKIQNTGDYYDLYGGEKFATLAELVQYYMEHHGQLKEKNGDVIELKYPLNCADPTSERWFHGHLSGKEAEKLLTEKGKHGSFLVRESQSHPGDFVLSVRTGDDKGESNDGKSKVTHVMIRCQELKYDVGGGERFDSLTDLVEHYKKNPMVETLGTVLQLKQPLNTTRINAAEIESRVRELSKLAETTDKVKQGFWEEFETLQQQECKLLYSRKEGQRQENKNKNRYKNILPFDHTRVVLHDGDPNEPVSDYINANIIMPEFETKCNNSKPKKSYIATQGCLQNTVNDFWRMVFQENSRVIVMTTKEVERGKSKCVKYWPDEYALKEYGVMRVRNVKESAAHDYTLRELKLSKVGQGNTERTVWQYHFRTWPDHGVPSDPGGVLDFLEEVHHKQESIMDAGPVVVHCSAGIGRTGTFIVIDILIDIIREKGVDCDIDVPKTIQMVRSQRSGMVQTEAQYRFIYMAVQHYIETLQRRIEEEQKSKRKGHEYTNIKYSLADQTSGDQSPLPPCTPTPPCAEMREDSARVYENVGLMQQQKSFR
# [17] = target: Dual specificity protein phosphatase 3 (Homo sapiens, UniProt P51452); experiment: VHR phosphatase inhibition, dose response, selectivity assay for STEP inhibitor project, biochemical (AID 602374); format: functional; conditions: read-out: IC50_Mean
# Sequence of Dual specificity protein phosphatase 3 (P51452 whole entry): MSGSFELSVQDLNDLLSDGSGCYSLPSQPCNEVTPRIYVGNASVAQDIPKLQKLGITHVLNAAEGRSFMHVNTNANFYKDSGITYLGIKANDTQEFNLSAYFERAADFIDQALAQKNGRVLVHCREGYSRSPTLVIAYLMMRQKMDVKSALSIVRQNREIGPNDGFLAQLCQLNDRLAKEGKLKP
# [18] = HGIII-sPLA2 enzyme inhibition potency – biochemical, QFRET, IC50, dose response (AID 743457);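 also: green fluorescence rise as the enzyme cleaves BODIPY PC-A2 in liposomes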
# [19] = system: Streptococcus sp. 'group A'; experiment: Streptococcus pyogenes SK(-)GAS viability under kanamycin – luminescence, BacTiterGlo, confirmation, counter-screen for streptokinase expression inhibitor project, dose response (AID 1900); format: functional, organism-based
# Streptococcus = experiment: GAS UMAA2166 growth inhibition – luminescence, BacTiterGlo, counter-screen for streptokinase expression inhibitor project, dose response (AID 1915); format: functional, organism-based;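 also: potency for reduction of bacterial viability or growth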
# [20] = general mammalian cell viability loss – inhibitor set, cherry-pick, set 2, cytotoxicity control for miR-122 modulator project, dose response (AID 720697); format: functional, cell-based
# [21] = general mammalian cell viability loss – activator set, cherry-pick, cytotoxicity control for miR-122 modulator project, dose response (AID 720690); format: functional, cell-based;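 also: HEK293T human cells scored for general mammalian cytotoxicity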
# [22] = inhibition of ARNT PAS-B/TACC3 complex formation – biochemical, AlphaScreen, cherry-picked samples, confirmation (AID 651703); format: functional, Homo sapiens;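 also: His-tagged ARNT PAS-B domain paired with GST-TACC3 E629A dimer coactivator fragment; potency of inhibitors that break up the complex and lower AlphaScreen signal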
# [23] = target: DNA (cytosine-5)-methyltransferase 1 (Homo sapiens, UniProt P26358); experiment: inhibition of DNA methylation by DNMT1 – biochemical, fluorescent molecular beacon, confirmation (AID 602386); format: functional
# Sequence of DNA (cytosine-5)-methyltransferase 1 (P26358 whole entry): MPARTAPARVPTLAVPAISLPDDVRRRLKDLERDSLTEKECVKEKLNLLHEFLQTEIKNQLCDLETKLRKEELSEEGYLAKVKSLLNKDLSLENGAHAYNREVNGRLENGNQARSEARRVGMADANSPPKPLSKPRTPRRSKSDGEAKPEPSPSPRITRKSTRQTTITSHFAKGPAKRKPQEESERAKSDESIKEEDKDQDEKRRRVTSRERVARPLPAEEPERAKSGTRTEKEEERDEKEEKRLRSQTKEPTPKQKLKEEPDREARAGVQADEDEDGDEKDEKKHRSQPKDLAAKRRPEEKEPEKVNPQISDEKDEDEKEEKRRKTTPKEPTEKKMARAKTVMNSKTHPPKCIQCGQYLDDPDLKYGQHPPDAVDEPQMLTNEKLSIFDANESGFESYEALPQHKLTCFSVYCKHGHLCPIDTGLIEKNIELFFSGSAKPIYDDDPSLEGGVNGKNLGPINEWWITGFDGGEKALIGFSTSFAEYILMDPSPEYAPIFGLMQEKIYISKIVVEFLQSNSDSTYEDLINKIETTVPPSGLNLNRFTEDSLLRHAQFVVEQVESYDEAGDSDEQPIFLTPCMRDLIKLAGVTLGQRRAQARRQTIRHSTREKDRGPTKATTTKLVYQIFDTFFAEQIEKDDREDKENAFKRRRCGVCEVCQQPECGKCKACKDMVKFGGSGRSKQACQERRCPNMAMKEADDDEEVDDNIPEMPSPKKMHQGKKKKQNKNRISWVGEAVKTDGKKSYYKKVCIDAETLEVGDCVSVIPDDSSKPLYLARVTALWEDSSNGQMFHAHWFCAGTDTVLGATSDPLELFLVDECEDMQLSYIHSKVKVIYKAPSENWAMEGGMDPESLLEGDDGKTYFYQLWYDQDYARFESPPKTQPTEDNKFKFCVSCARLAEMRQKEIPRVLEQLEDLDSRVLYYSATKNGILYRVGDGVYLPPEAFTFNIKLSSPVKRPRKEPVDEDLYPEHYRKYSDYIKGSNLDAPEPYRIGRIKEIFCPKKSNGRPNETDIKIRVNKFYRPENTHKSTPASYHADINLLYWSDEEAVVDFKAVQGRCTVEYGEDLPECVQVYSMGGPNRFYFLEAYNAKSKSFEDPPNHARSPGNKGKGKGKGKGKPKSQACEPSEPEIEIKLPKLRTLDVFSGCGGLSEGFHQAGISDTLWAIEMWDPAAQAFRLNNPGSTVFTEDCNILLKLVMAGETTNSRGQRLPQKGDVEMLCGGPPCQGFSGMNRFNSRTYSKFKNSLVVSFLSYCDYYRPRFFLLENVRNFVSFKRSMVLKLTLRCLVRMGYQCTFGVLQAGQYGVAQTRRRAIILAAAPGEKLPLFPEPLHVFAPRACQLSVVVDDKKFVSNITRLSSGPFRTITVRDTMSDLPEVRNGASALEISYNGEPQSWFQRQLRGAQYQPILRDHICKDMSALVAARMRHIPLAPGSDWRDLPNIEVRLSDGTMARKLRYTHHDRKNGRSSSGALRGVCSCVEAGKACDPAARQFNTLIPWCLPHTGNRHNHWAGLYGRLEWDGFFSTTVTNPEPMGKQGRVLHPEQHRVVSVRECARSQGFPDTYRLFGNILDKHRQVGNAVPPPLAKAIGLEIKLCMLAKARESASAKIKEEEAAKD
# [24] = viability loss in THP-1 monocytes – THP-1 cells, cytotoxicity control for Vif-APOBEC3G degradation inhibitor project, dose response (AID 1117359); format: functional; conditions: THP-1
# Sequence of Galanin receptor type 3 (O60755 whole entry): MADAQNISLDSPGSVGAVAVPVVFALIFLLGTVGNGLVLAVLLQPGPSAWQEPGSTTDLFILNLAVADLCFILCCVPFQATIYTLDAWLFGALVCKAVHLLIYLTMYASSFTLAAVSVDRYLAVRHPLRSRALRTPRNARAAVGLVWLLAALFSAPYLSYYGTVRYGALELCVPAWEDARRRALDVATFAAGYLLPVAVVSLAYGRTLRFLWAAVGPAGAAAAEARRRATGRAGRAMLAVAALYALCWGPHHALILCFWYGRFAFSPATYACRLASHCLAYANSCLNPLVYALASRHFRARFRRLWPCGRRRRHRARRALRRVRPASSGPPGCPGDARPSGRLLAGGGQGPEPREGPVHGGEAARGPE
structure (smiles),measurement,setting,value
CSc1ccc(CN2CCN(C(=O)c3ccc([N+](=O)[O-])cc3)CC2)cc1,IC50,Galanin receptor type 3,1.91 µM (active)
same,EC50,cells [1],> 29.9 µM (inactive)
Oc1ccc(Cl)cc1C1=Nc2ccccc2N=C(c2ccco2)C1,EC50,[2],> 99 µM (inactive)
same,IC50,[3],8.31 µM (active)
same,EC50,[4],> 99 µM (inactive)
COc1cc(CCNC2=CC(=O)c3ncccc3C2=O)ccc1O,AC50,[5],1.24 µM (active)
same,IC50,[6],62.2 µM (active)
same,AC50,[7],82.2 µM (active)
same,CC50,[8],21.3 µM (active)
same,IC50,[9],67.8 µM (inactive)
Cc1cccc(-c2nnc(SCC#N)n2-c2ccccc2)c1,AC50,[10],3.22 µM (active)
CC(C)n1c(N2CCN(C(=O)c3cccs3)CC2)nc2ccccc21,AC50,[10],10.6 µM (active)
CCN1CN(CCc2ccccc2)CN=C1S,EC50,cells [11],> 29.9 µM (inactive)
same,IC50,cells [12],> 29.9 µM (inactive)
same,EC50,cells [13],> 350 µM (not active)
same,EC50,cells [14],> 350 µM (not active)
COc1ccccc1Nc1ccc([N+](=O)[O-])cc1N,IC50,[15],34.5 µM (inactive)
same,IC50,[16],8.01 µM (active)
same,IC50,[17],3.2 µM (active)
O=C(Cc1ccccc1)NNC(=S)NC(=O)c1cccs1,IC50,[18],> 122 µM (inactive)
same,EC50,[19],3.33 µM (active)
same,EC50,Streptococcus,7.51 µM (active)
C=CCNC(=S)NNC(=O)Cn1c(-c2ccccc2)cc(=O)n2ncnc12,AC50,[20],4.83 µM (active)
CC(=O)c1ccc(Nc2nc3ccc(C)cc3n3cnnc23)cc1,AC50,[21],0.551 µM (active)
CCOc1ccc(-c2cnc(N)n2C)cc1,AC50,[22],93.9 µM (active)
O=C(CSc1ccc2nnc(-c3ccccn3)n2n1)NCc1ccco1,AC50,[7],99 µM (active)
COc1cc(/C=C/C=C2/CC/C(=C/C=C/c3ccc(O)c(OC)c3)C2=O)ccc1O,IC50,[23],8.22 µM (active)
same,IC50,[6],99.4 µM (active)
same,CC50,[24],24.1 µM (active)
CCn1c(S)nnc1-c1csc(C(C)C)c1,IC50,[18],> 122 µM (inactive)
